These results are taken from patent US20240173403A1, “Combination of AXL Antibodies and ACE Inhibitors in the Treatment of Fibrosis” (BERGENBIO ASA, priority 2021, published 2024).

“Also recorded” adds a separate entry of the source. Read-outs that look alike come from different tables or passages of the source.

Assay [1] deals with liver fibrosis. To be noted: mice; Barcena et al. 2015; cited from earlier work.
Assay [2] deals with lung fibrosis. Particulars: two mouse lung fibrosis models; Espindola et al. 2018; cited from earlier work.
Assay [3] deals with kidney fibrosis. Particulars: UUO mice, bemcentinib monotherapy, Landolt et al. 2019, cited from earlier work.
The subject of assay [4] is TIMP-1. Kind of assay: TIMP-1 levels in human PCKS culture supernatants (ELISA). In kind it is cell-based. The procedure:
(§1) PCKS were prepared from explanted kidney tissue and rested for 24 hours to allow the post-slicing stress period to elapse before experiments began. All PCKS were harvested at 96 hrs.
(§2) PCKS were incubated for a 24 hr rest period. Post-rest, PCKS were incubated for a further 72 hrs in the presence or absence of inhibitors. PCKS culture media, including all compounds, was refreshed and harvested at 24 hrs intervals. All PCKS were harvested at 96 hrs.
(§3) Tissue culture supernatant (n=3 paired wells) were collected every 24 hrs and snap frozen for quantification of soluble outputs. At 96 hrs n=4 PCKS were snap frozen for RNA extraction and n=2 PCKS were formalin fixed paraffin embedded (FFPE) for IHC.
(§4) Levels of collagen 1a1, IL-6, Hyaluronic Acid and TIMP-1 in the tissue culture supernatants (n=165 samples per donor) were quantified using R&D Duoset ELISA kits.

Assay [5] concerns IL-6. Nature of the assay: IL-6 levels in human PCKS culture supernatants (ELISA). To be noted: two of the high doses of Bemcentinib; early time point (48 hrs). In kind it is cell-based. The procedure: as §1, §2, §3, §4
Assay [6] has as its system αSMA (activated myofibroblasts). Nature of the assay: α-SMA staining of PCKS sections, % area positive. In kind it is cell-based, human. Particulars: 96 hrs harvest. The procedure:
as §1, §3
FFPE tissue was cut into 5 μm sections and stained for Picrosirius Red and α-Smooth Muscle Actin (αSMA) (n=19 samples per donor). Analysis was performed by a pathology trained technical staff member without knowledge of the sample ID. High magnification images were taken of each slide and analysed for the surface area covered by the stain (e.g. percentage area positive for Oil Red O, Picrosirius or αSMA).
α-SMA stained PCKS sections were prepared. Up to 25 high magnification images (×20) from each PCKS were quantified for the percentage area of tissue positive for stain and averaged to give a mean tissue area positive for α-SMA.
Histological effects of treatments were assessed on the basis of changes in percentage positive area stained for αSMA (activated myofibroblasts) and Picrosirius Red (collagen deposition).

The test system of assay [7] is Collagen 1a1. Nature of the assay: Collagen 1a1 levels in human PCKS culture supernatants (ELISA). It counts as cell-based. The procedure:
as §1, §2, §3, §4
Levels of collagen 1a1 in the tissue culture supernatants were quantified using R&D Duoset ELISA kits.
Background: An ELISA detects its analyte on a solid surface through an enzyme-linked reagent.

For assay [8], the system named is Hyaluronic Acid. Nature of the assay: Hyaluronic Acid levels in human PCKS culture supernatants (ELISA). It counts as cell-based. To be noted: Nintedanib 4 μM. The procedure: as §1, §2, §3, §4
Setting [9] is: Enalapril alone (0.75, 0.15 μM).
Setting [10] is: 4 μM, 72 hrs and 96 hrs of treatment, positive control.
Setting [11] is: Tilvestamab monotherapy (1 to 125 μg/mL).

For `Nc1nc(Nc2ccc3c(c2)CC[C@@H](N2CCCC2)CC3)nn1-c1cc2c(nn1)-c1ccccc1CCC2` [Bemcentinib, 1-(6,7-dihydro-5H-benzo[6,7]cyclohepta[1,2-c]pyridazin-3-yl)-N^3-((7-(S)-pyrrolidin-1-yl)-6,7,8,9-tetrahydro-5H-benzo[7]annulene-2-yl)-1H-1,2,4-triazole-3,5-diamine], in assay [1], the liver fibrosis entry is given as “reduced liver fibrosis”. Moreover, the “fibrosis development in lung” value in assay [2] was “reduction in fibrosis development”. In addition, the “fibrosis development in kidney” value in assay [3] was “attenuate fibrosis and reduce inflammation”; in assay [3] (listed as bemcentinib), “less fibrosis development”. In addition, the TIMP-1 production entry in assay [4] (Bemcentinib monotherapy, all doses (0.11, 0.33, 1, 3 μM)) is “able to reduce production of the fibrotic markers Collagen 1a1 and TIMP-1 at all doses”. Also, in assay [5], the IL-6 secretion result was “spike in IL-6 secretion”. Besides, the “αSMA, percentage positive area” value in assay [6] (Bemcentinib singly, 3 μM) is listed as “reduce expression of the fibrotic marker αSMA; also recorded: reduced”. Moreover, the “Collagen 1a1 production” value in assay [7] (Bemcentinib monotherapy, all doses (0.11, 0.33, 1, 3 μM), not dose dependent) was “able to reduce production of the fibrotic markers Collagen 1a1 and TIMP-1 at all doses”.
Regarding `CCOC(=O)[C@H](CCc1ccccc1)N[C@@H](C)C(=O)N1CCC[C@H]1C(=O)O` [Enalapril], in assay [4] (setting [9]), the TIMP-1 secretion entry is reported as “did not show any efficacy towards reducing TIMP-1 secretion”. Besides, the “αSMA, percentage positive area” value in assay [6] (Enalapril singly, 0.15 μM) is “reduced”; in assay [6] (Enalapril singly, 0.15 μM, listed as Enalaril), “reduce expression of the fibrotic marker αSMA”. Besides, the “Collagen 1a1 secretion” value in assay [7] (setting [9]) is recorded as “did not show any efficacy towards reducing Collagen 1a1 secretion”.
`COC(=O)c1ccc2c(c1)NC(=O)/C2=C(\Nc1ccc(N(C)C(=O)CN2CCN(C)CC2)cc1)c1ccccc1` [Nintedanib]: in assay [8], the Hyaluronic acid result was “readily reduced”. In addition, the TIMP-1 production entry in assay [4] (setting [10]) is listed as “significantly inhibit TIMP-1 production”. In addition, the “Collagen 1a1 production” value in assay [7] (setting [10]) is given as “inhibited Collagen 1a1 production”.

B1: Tilvestamab: novel humanized anti-AXL antibody that blocks GAS6-mediated AXL receptor activation; VH SEQ ID No.1, VL SEQ ID No.2 (antibody, V domains shown)
VH: EVQLVESGGGLVQPGGSLRLSCAASGYSFTDFYINWVRQAPGKGLEWVARIFPGGDNTYYNEKFKGRFTLSADTSKSTAYLQMNSLRAEDTAVYYCARRGLYYAMDYWGQGTLVTVSS
VL: DIQMTQSPSSLSASVGDRVTITCRSSQSLVHSNGIPYLHWYQQKPGKAPKLLIYRVSNRFSGVPSRFSGSGSGTDFTLTISSLQPEDFATYYCSQGTHVPPTFGQGTKVEIK
modifications: BGB149 VH; BGB149 VL
On to B1, for which, in assay [4] (setting [11]), the TIMP-1 secretion entry is reported as “no effect on reducing Collagen 1a1 or TIMP-1 secretion; also recorded: no effect on reducing TIMP-1 secretion”. For the same molecule, the “αSMA, percentage positive area” value in assay [6] (Tilvestamab singly, three of the highest doses) was “did reduce αSMA; also recorded: reduced”. Moreover, the “Collagen 1a1 secretion” value in assay [7] (setting [11]) is “no effect on reducing Collagen 1a1 or TIMP-1 secretion; also recorded: no effect on reducing Collagen 1a1 secretion”.
